The source of these data is patent US20030068275A1, “Coordination complexes for detecting analytes, and methods of making and using the same” (priority 2001, published 2003).

This series in a line: Detection of nitric oxide with the [Co2(O2CAr^Tol)4(dansylpiperazine)2] fluorescent sensor. Conditions: for peak emission intensity wavelength: CH2Cl2, excited at 350 nm. Here is the method: Detection of Nitric Oxide with the [Co2(O2CAr^Tol)4(dansylpiperazine)2Fluorescent Sensor. It is believed that in solution [Co2(O2CAr^Tol)4(dansylpiperazine)2] is in equilibrium between two species: the [Co2(μ-O2CAr^Tol)4(dansylpiperazine)2] (paddle-wheel) isomer and the [Co2(μ-O2CAr^Tol)2(O2CAr^Tol)2(dansylpiperazine)2] (windmill) isomer. […] The ability of the [Co2(O2CAr^Tol)4(dansylpiperazine)2] system to act as a nitric oxide sensor was tested. […] The exact reaction that occurs in this experiment has not yet been determined.
The fluorescence response of [Co2(O2CAr^Tol)4(dansylpiperazine)2] after exposure to excess NO in CH2Cl2 was measured spectroscopically. Solutions were excited at 350 nm and the emission spectrum recorded. The peak emission intensity is at 503 nm before exposure NO, but shifts to 513 nm after exposure to NO. Emission spectra, shown in FIG. 5, were recorded at 0, 1, 5, 10, 20, 30, 40, 50, and 60 minutes post exposure to NO. A fluorescence increase of 9.6-fold was observed after 60 minutes.

“[Co2(μ-O2CAr^Tol)4(dansylpiperazine)2] [[Co2(O2CAr^Tol)4(dansylpiperazine)2]]” had a fluorescence increase (CH2Cl2, excess NO, excited at 350 nm, after 60 minutes) of 9.6 fold. For the same substance, the “peak emission intensity wavelength” value runs as follows: (after exposure to excess NO) 513 nm; (before exposure to NO) 503 nm. For the same substance, the “fluorescence in the absence of nitric oxide” value (solution in dichloromethane, before NO (FIG. 4b, left)) is recorded as “little to no fluorescence”. For the same substance, the “fluorescence change after exposure to nitric oxide” value (solution in dichloromethane, excess NO (FIG. 4b, right)) is listed as “increase in fluorescence”.
